We go through 20 compounds from article PMC9182086, “Identification of New Non-BBB Permeable Tryptophan Hydroxylase Inhibitors for Treating Obesity and Fatty Liver Disease” (Molecules, 2022).

The structures appear in SMILES notation. Where only a bound is given, the exact number is not on record here.

For one experiment, the target named is T1, TPH1 (Homo sapiens, UniProt P17752).
T1 construct: purchased BPS Bioscience
T1 sequence (P17752 1-444): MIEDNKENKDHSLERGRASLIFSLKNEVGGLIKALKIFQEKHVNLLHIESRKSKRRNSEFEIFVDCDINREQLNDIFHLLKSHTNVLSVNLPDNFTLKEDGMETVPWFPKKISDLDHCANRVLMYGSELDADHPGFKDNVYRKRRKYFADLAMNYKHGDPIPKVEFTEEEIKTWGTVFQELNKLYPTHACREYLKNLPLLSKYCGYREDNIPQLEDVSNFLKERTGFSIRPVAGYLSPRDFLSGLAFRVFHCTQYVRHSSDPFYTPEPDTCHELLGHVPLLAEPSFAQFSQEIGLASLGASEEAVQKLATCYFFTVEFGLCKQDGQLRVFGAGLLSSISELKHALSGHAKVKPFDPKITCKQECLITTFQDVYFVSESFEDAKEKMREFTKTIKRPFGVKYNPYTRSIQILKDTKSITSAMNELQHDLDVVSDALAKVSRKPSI
The experiment is described as follows: TPH1 enzyme inhibition, in vitro screening (BPS Bioscience kit, fluorescence). Particulars: for TPH1 Inhibition (% Inhibition at 1 µM) / inhibition at 1 µM: 1 µM compound; for inhibition at 10 µM: 10 µM compound (stated in the cell). Type of experiment: biochemical. Here is the method:
Consequently, the core structure of thienopyrimidine tyrosine (derivative 6) was selected as the starting point for the synthesis, evaluating the structure-activity relationships (SAR), and optimization of TPH1 inhibitors. […]
In vitro screening was performed as described previously [PMID: 33417443]. Briefly, TPH1 enzyme activity was measured with a commercially available kit (BPS Bioscience). Compounds were dissolved in DMSO (Sigma). Then, 10 μL of the compound was dispensed into a 96-well microplate, and 40 μL of the TPH1 enzyme solution (320 ng enzyme/reaction) was added. Then, 50 μL of the TPH1 reaction solution was added, and the microplate was sealed with aluminum foil. The microplate was immediately cooled to 4 °C, gently shaken, and incubated for 4 h. After a defined time, 10 μL of the TPH1 quench solution was added. Then, the fluorescence was measured with a Flexstation3 microplate reader at 300 nm for excitation and 360 nm for emission. All experiments were performed in triplicate.

The test system of the next experiment is HFD-fed C57BL/6J mice. The experiment is described as follows: In vivo efficacy test in high-fat diet fed mice. Details: species or system mouse. Particulars: vs vehicle. As for the experimental part:
All animal study protocols were approved by the Institutional Animal Care and Use Committee at the Korea Advanced Institute of Science and Technology. Male C57BL/6J mice were purchased from SLC (Shizuoka, Japan) and acclimatized for a week. Mice were housed in a humidity and temperature-controlled environment under a 12 h light-dark cycle with ad libitum access to water and food. After acclimatization, male mice were fed a high-fat diet (HFD, 60% fat calories, Research diet; New Brunswick, NJ) and received daily treatment with TPH1 inhibitors. […] Compound 18i was dissolved in 5% dimethyl sulfoxide (DMSO) (Sigma, St. Louis, MO, USA) and 25% β-cyclodextrin (Sigma, St. Louis, MO, USA). Vehicle or compound 18i (100 mg kg^−1) was injected intraperitoneally in mice for 10 days after two weeks of HFD feeding. Both compounds 19 and 21 were prepared in 10% DMSO and 10% Kolliphor EL (Sigma, St. Louis, MO, USA). Vehicle and 100 mg kg^−1 of compound 19 or compound 21 were administered daily by intraperitoneal injection or oral feeding, respectively, concomitant to the initiation of HFD feeding. For analyzing blood glucose concentration, glucose in blood collected from the tail vein was measured after fasting mice for 16 h using a Gluco Dr. Top glucometer (Allemedicus, Anyang, Korea). Body weight was measured daily and mice were sacrificed for harvesting adipose tissue and liver.
Tissue samples were fixed in 10% formalin, embedded in paraffin, and cut into 5 μm thick sections, followed by deparaffinization and rehydration for H&E staining and UCP1 immunohistochemistry. After heat-induced antigen retrieval with a citrate buffer (pH 6.0) for 10 min at 95°C, tissue sections were incubated with BLOXALL Blocking solution (Vector Laboratories, Burlingame, CA, USA) to block endogenous peroxidase, followed by incubation with 2% normal goat serum in phosphate-buffered saline (PBS) for 30 min at room temperature to block nonspecific binding. Sections were incubated overnight with the anti-UCP1 primary antibody diluted 1:200 in 2% normal goat serum in PBS (Abcam, Cambridge, UK) at 4 °C, followed by 30 min incubation with biotinylated anti-rabbit IgG secondary antibody diluted 1:400 in PBS for 30 min at room temperature. After incubation with Vectastain […] reagent (Vector Laboratories) for 30 min, peroxidase activity was visualized with 3,3′-diaminobenzidine substrates (Vector Laboratories). For measuring average adipocyte size, we analyzed three random fields of H&E stained micrographs per adipose tissue sample from two representative mice of each group using AdipoCount software.
Fresh liver tissues were flash frozen in O.C.T. compound (Sakura Finetek, Torrance, CA, USA) and 10 μm cryostat sections were collected on glass slides. Sections were allowed to air-dry for 1 h, rinsed with PBS for 5 min, and washed with distilled water for 5 min. After washing, sections were placed in 30% isopropanol for 5 min, 60% isopropanol for 5 min twice, and then stained in Oil Red O solution (0.5% Oil red O (Sigma, St. Louis, MO, USA) dissolved in 60% isopropanol) for 15 min. The stained sections were rinsed twice with distilled water, mounted, coverslipped, and documented using bright field microscopy.

The test system of experiment [1] is high-fat diet (HFD) fed mice. More on the design: method as in PMID 25864946, PMID 25485911. Particulars: cited from earlier work.

With `CCOC(=O)[C@@H](N)Cc1ccc(-c2csc3c(O[C@H](c4ccc(Cl)cc4-n4ccc(C)n4)C(F)(F)F)ncnc23)cc1` [Compound 21, ethyl (S)-2-amino-3-(4-(4-((R)-1-(4-chloro-2-(3-methyl-1H-pyrazol-1-yl)phenyl)-2,2,2-trifluoroethoxy)thieno[3,2-d]pyrimidin-7-yl)phenyl)propanoate hippurate], the “TPH1 Inhibition (% Inhibition at 1 µM)” value at TPH1 (1 µM) is on record as 92%. Further, in the experiment with HFD-fed C57BL/6J mice (100 mg/kg oral daily, 6 weeks), the “Body and liver weights” value was “without significant changes in body and liver weights”; the “Lipid accumulation in liver tissue (H&E, oil red O)” value is recorded as “dramatically decreased lipid accumulation in liver tissue”.

`N[C@@H](Cc1ccc(-c2csc3c(OC(c4ccccc4-c4ccccc4)C(F)(F)F)ncnc23)cc1)C(=O)O` (stereo partly shown) [Compound 18e] had an inhibition at 1 µM on TPH1 of 76%. On to `N[C@@H](Cc1ccc(-c2csc3c(O)ncnc23)cc1)C(=O)O` [Compound 15b], for which the “TPH1 inhibitory activity (in words)” value on TPH1 is recorded as “weak activity”. For the same compound, on TPH1 (100 µM compound), the inhibition at 100 µM turned out to be 33%. On to `CCOC(=O)[C@@H](N)Cc1ccc(-c2csc3c(O[C@H](c4ccc(Cl)cc4-n4ccc(C)n4)C(F)(F)F)ncnc23)cc1.Cl` [Compound 19, ethyl (S)-2-amino-3-(4-(4-((R)-1-(4-chloro-2-(3-methyl-1H-pyrazol-1-yl)phenyl)-2,2,2-trifluoroethoxy)thieno[3,2-d]pyrimidin-7-yl)phenyl)propanoate hydrochloride], for which, at TPH1, the IC50 turned out to be 994 nM and the “TPH1 Inhibition (% Inhibition at 1 µM)” value amounted to 60%. In addition, the Body weight gain result in the experiment with HFD-fed C57BL/6J mice (100 mg/kg ip daily for 11 days from start of HFD) is listed as “attenuated body weight gain”. Also, in the experiment on HFD-fed C57BL/6J mice (100 mg/kg ip daily), the “Adipocyte size in eWAT and iWAT (histology)” value is “decreased adipocyte size”; the “UCP1 content in iWAT (immunohistochemistry)” value is given as “higher content of mitochondrial uncoupling protein 1 (UCP1)”. As for `Cl.N[C@@H](Cc1ccc(-c2csc3c(OC(c4ccccc4)C(F)(F)F)ncnc23)cc1)C(=O)O` (stereo partly shown) [Compound 18c], at TPH1, the “TPH1 inhibitory activity (in words)” value is “completely lost their activity” and the inhibition at 10 µM worked out at 2.5%. `CCOC(=O)[C@@H](N)Cc1ccc(-c2csc3c(O[C@H](c4ccc(Cl)cc4-n4ccc(C)n4)C(F)(F)F)ncnc23)cc1` [Compound 20, ethyl (S)-2-amino-3-(4-(4-((R)-1-(4-chloro-2-(3-methyl-1H-pyrazol-1-yl)phenyl)-2,2,2-trifluoroethoxy)thieno[3,2-d]pyrimidin-7-yl)phenyl)propanoate]: on TPH1 (1 µM), the “TPH1 Inhibition (% Inhibition at 1 µM)” value amounted to 79%. On TPH1, `N[C@@H](Cc1ccc(-c2csc3c(NCc4ccc(-c5ccccc5)cc4)ncnc23)cc1)C(=O)O` [Compound 18a] showed an inhibition at 1 µM of 25%. In addition, on TPH1 (100 µM compound), the inhibition at 100 µM is 90%.

In the case of `N[C@@H](Cc1ccc(Oc2ncnc3c(-c4cccc(OCc5ccccc5)c4)csc23)cc1)C(=O)O` [Compound 11b], the inhibition at 100 µM at TPH1 (100 µM compound) was 94%. Besides, the “TPH1 Inhibition (% Inhibition at 100 µM)” value on TPH1 (100 µM compound, 100 µM) was 92%. `C[C@@H](Nc1ncnc2c(-c3ccc(C[C@H](N)C(=O)O)cc3)csc12)c1ccc2ccccc2c1` [Compound 18b] returned an inhibition at 1 µM on TPH1 of 10%. At TPH1, `N[C@@H](Cc1ccc(-c2csc3c(O[C@H](c4ccc(Cl)cc4C4=CCCOC4)C(F)(F)F)ncnc23)cc1)C(=O)O` [Compound 18h] displayed an IC50 of 263 nM and an inhibition at 1 µM of 78%. As to `N[C@@H](Cc1ccc(-c2csc3c(OC(c4ccc(-c5ccccc5)cc4)C(F)(F)F)ncnc23)cc1)C(=O)O` (stereo partly shown) [Compound 18d], on TPH1, the “TPH1 inhibitory activity (in words)” value is reported as “completely lost their activity” and 10 µM produced 1.2% inhibition.

At TPH1, `Cc1ccn(-c2cc(Cl)ccc2[C@@H](Oc2nc(N)nc3c(-c4ccc(C[C@H](N)C(=O)O)cc4)csc23)C(F)(F)F)n1` [Compound 30] registered an IC50 of 208 nM and an inhibition at 1 µM of 91%. For the compound `N[C@@H](Cc1ccc(Oc2ncnc3c(-c4ccc(O)cc4)csc23)cc1)C(=O)O` [Compound 9a], 100 µM produced 45% inhibition against TPH1 (100 µM compound). Still for that read-out and setting: the same measure for `N[C@@H](Cc1ccc(Oc2ncnc3c(Br)csc23)cc1)C(=O)O` [Compound 6]: above 60%.

Consider `N[C@@H](Cc1ccc(-c2csc3c(O[C@H](c4ccc(Cl)cc4-c4ccoc4)C(F)(F)F)ncnc23)cc1)C(=O)O` [Compound 18g], for which, on TPH1, the inhibition at 1 µM stood at 12%. In turn, `N[C@@H](Cc1ccc(-c2csc3c(OC(c4ccc(Cl)cc4-c4ccccc4)C(F)(F)F)ncnc23)cc1)C(=O)O` (stereo partly shown) [Compound 18f] registered an inhibition at 1 µM against TPH1 of 41%. In the case of `Nc1nc(OC(c2ccc(-c3cccc(F)c3)cc2)C(F)(F)F)cc(-c2ccc(C[C@H](N)C(=O)O)cc2)n1` (stereo partly drawn) [LP533401, 4-[2-amino-6-[2,2,2-trifluoro-1-(3’-fluoro[1,1’-biphenyl]-4-yl)ethoxy]-4-pyrimidinyl]-L-phenylalanine, reference compound], the “Protection against diet-induced obesity (body weight gain, lipogenesis in adipose tissue)” value in experiment [1] is recorded as “protect against diet-induced obesity in vivo”. In the case of `Nc1ncnc2c(-c3ccc(C[C@H](N)C(=O)O)cc3)csc12` [Compound 15a], the “TPH1 inhibitory activity (in words)” value on TPH1 is reported as “weak activity”. This compound also yielded an inhibition at 100 µM at TPH1 (100 µM compound) of 49%.

On to `N[C@@H](Cc1ccc(Oc2ncnc3c(-c4cccc(O)c4)csc23)cc1)C(=O)O` [Compound 9b], for which the inhibition at 100 µM against TPH1 (100 µM compound) came out at 82%. On the same count and under the same terms, the same measure for `N[C@@H](Cc1ccc(Oc2ncnc3c(-c4ccc(OCc5ccccc5)cc4)csc23)cc1)C(=O)O` [Compound 11a]: 58%.
